Data taken from US10894798B2, “Substituted dihydropyrrolopyrazole derivative” (UBE INDUSTRIES, LTD., priority 2015, dated 2021).
Where two headings read alike, the source gives them in different places.

Tests used:
IL-2 production = test: Human PBMC CD3/CD28-induced IL-2 production inhibition test; assay type: cell-based; conditions: 48 h, read-out: IC50 value, IL-2 production inhibition
Protocol: PBMC (peripheral blood mononuclear cell) was separated and collected by using Ficoll-Paque (manufactured by GE Healthcare Japan Corp.) from blood collected from a healthy human adult in the presence of heparin. A RPMI1640 medium containing 10% FBS, 1% penicillin/streptomycin/amphotericin B, essential amino acids, and pyruvic acid and containing a test compound dissolved in DMSO and 2 μg/mL CD28 was added at 100 μL/well to T cell Activation Plate Anti-Human CD3 96-well plate (manufactured by Becton, Dickinson and Company), and subsequently, a PBMC suspension prepared such that the number of cells was 2×10^6 cells/mL was added thereto at 100 μL/well (final DMSO concentration: 0.1%). A RPMI1640 medium containing 10% FBS and containing 0.1% DMSO and 2 μg/mL CD28 was similarly added to wells not supplemented with the test compound. After culture for 2 days in a carbon dioxide incubator, the culture supernatant was collected. The collected culture supernatant was stored at −20° C. until IL-2 content measurement.
In the measurement of an L-2 content in the culture supernatant, a sandwich ELISA kit (Quantikine Human IL-2, manufactured by R&D Systems, Inc.) was used. The L-2 content of each sample was calculated from the calibration curve of Standard IL-2 included in the kit. […] A test compound concentration necessary for inhibiting 50% of L-2 production (IC50 value) was calculated from the concentration of the added test compound and the rate of inhibition of IL-2 production by the test compound by using EXSUS (version 8.1.0, manufactured by CAC Exicare Corp.).

[1] = test system: breast cancer cell line BT-549; test: Various human cancer cell growth inhibition test: BT-549; assay type: cell-based; conditions: ATPlite, read-out: GI50 value (concentration necessary for inhibiting 50% of cell growth)
Description: (§1) A breast cancer cell line BT-549 (obtained from American Type Culture Collection (ATCC)), a uterus cancer cell line C-33A (obtained from ATCC), an ovary cancer cell line PA-1 (obtained from ATCC), a large-cell lung cancer cell line NCI-H460 (obtained from ATCC), a small-cell lung cancer cell line NCI-H82 (obtained from ATCC), a kidney cancer cell line ACHN (obtained from ATCC), a pancreatic cancer cell line BxPC-3 (obtained from ATCC), a malignant melanoma cell line A375 (obtained from ATCC), a throat cancer cell line FaDu (obtained from ATCC), a medulloblastoma cell line Daoy (obtained from ATCC), a cutaneous epithelioid sarcoma cell line VA-ES-BJ (obtained from ATCC), a rhabdomyosarcoma cell line A-204 (obtained from ATCC), a prostate cancer cell line DU145 (obtained from ATCC), a bladder cancer cell line T24 (obtained from ATCC), a lymphoma cell line SR (obtained from ATCC), a neuroblastoma cell line SH-SY5Y (obtained from DS Pharma Biomedical Co., Ltd.), a liver cancer cell line HepG2 (obtained from DS Pharma Biomedical Co., Ltd.), a stomach cancer cell line HGC-27 (obtained from DS Pharma Biomedical Co., Ltd.), and a multiple myeloma cell line NCI-H929 (obtained from DS Pharma Biomedical Co., Ltd.) were used as human cancer cell lines.
(§2) Each cell line was cultured in a cell culture medium recommended by ATCC or DS Pharma Biomedical Co., Ltd. and inoculated at 0.3 to 5.0×10^3 cells/well to a 96-well plate. The cells were cultured overnight in a carbon dioxide incubator of 37° C. containing 5% carbon dioxide. The medium was replaced with a fresh medium on the next day, then replaced with a mixed solution of a DMSO solution of a test compound with varying concentrations and a culture medium (final DMSO concentration: 0.1%), and left standing in a carbon dioxide incubator (day 0). IV-361, IV-379, IV-3, IV-215, IV-299, IV-669, IV-1049, and palbociclib (for comparison) were used as test compounds. For a control group, DMSO was added instead of the DMSO solution of the test compound to a cell culture medium (final DMSO concentration: 0.1%).
(§3) After culture for a predetermined period, the ATP activity of BT-549, C-33A, PA-1, NCI-H460, NCI-H82, ACHN, BxPC-3, A375, FaDu, Daoy, VA-ES-BJ, A-204, DU145, T24, and SR was measured by using ATPlite (manufactured by PerkinElmer, Inc.). The ATP activity of SH-SY5Y, HepG2, HGC-27, and NCI-H929 was measured by using CellTiter-Glo (manufactured by Promega Corp.).
(§4) The rate of inhibition of cell growth (%) was calculated according to the expression given below. Specifically, in the case where the difference between the ATP activity before culture (day 0) and the ATP activity after culture in the test compound-administered group is the same as the difference between the ATP activity before culture (day 0) and the ATP activity after culture in the control group, the rate of inhibition of cell growth is 0%. Rate of inhibition of cell growth=(1−((ATP activity of the test compound-administered group after culture)−(ATP activity of the test compound-administered group on day 0))/((ATP activity of the control group after culture)−(ATP activity of the control group on day 0)))×100
(§5) The concentration of the test compound necessary for inhibiting 50% of cell growth (GI50 value) was calculated by using EXSUS (version 8.1.0, manufactured by CAC Exicare Corp.).

[2] = test system: uterus cancer cell line C-33A; test: Various human cancer cell growth inhibition test: C-33A; assay type: cell-based; conditions: ATPlite, read-out: GI50 value (concentration necessary for inhibiting 50% of cell growth)
Description: as §1, §2, §3, §4, §5

[3] = test system: throat cancer cell line FaDu; test: Various human cancer cell growth inhibition test: FaDu; assay type: cell-based; conditions: ATPlite, read-out: GI50 value (concentration necessary for inhibiting 50% of cell growth)
Description: as §1, §2, §3, §4, §5

lymphoma cell line SR = test: Various human cancer cell growth inhibition test: SR; assay type: cell-based; conditions: ATPlite, read-out: GI50 value (concentration necessary for inhibiting 50% of cell growth)
Description: as §1, §2, §3, §4, §5

[4] = test system: stomach cancer cell line HGC-27; test: Various human cancer cell growth inhibition test: HGC-27; assay type: cell-based; conditions: CellTiter-Glo, read-out: GI50 value (concentration necessary for inhibiting 50% of cell growth)
Description: as §1, §2, §3, §4, §5

[5] = test system: multiple myeloma cell line NCI-H929; test: Various human cancer cell growth inhibition test: NCI-H929; assay type: cell-based; conditions: CellTiter-Glo, read-out: GI50 value (concentration necessary for inhibiting 50% of cell growth)
Description: as §1, §2, §3, §4, §5

[6] = test system: mouse imiquimod-induced psoriasis model; test: Ear thickening suppression test using mouse imiquimod-induced psoriasis model; assay type: in vivo; conditions: topical, application of a 0.01% solution in methanol, female BALB/c mice, read-out: rate of inhibition of increase in ear thickness
Protocol: An imiquimod-induced psoriasis model test was carried out by modifying the method of Leslie van der Fits et al. (J. Immunol. 182, 5836 (2009)).
Female BALB/c mice (supplied by Charles River Laboratories Japan, Inc.) were used as laboratory animals. On the start day of the test, the thicknesses of the right auricles of the mice were measured with a thickness gauge (manufactured by TECLOCK Corp.). A test compound or a solvent was applied or orally administered thereto, and after a certain time, a certain amount of Beselna Cream 5% (containing 5% imiquimod, manufactured by Mochida Pharmaceutical Co., Ltd.) was applied to the insides of the right auricles. The test compound or solvent application or oral administration and the imiquimod application were carried out for a certain period, and the thicknesses of the right auricles were measured again on the final day. The thicknesses of the right auricles were compared between the solvent-administered group and the test compound group, and the rate of inhibition was calculated.

[7] = human PBMC, CD3/CD28 stimulation, culture for 2 days, ELISA

CC1(C)c2[nH]nc(NC(=O)C3([Si](C)(C)C)CCC3)c2CN1C(=O)Nc1ccccc1F [IV-3, N-(2-Fluorophenyl)-6,6-dimethyl-3-[1-(trimethylsilyl)cyclobutanecarboxamido]-4,6-dihydropyrrolo[3,4-c]pyrazole-5(1H)-carboxamide]
IC50 (IL-2 production; [7]): ≤ 100 nM | GI50 [1]: < 300 nM | GI50 [2]: < 300 nM | GI50 [3]: < 300 nM | GI50 (lymphoma cell line SR): < 300 nM | GI50 [4]: < 300 nM | GI50 [5]: < 300 nM

Cc1ccccc1NC(=O)N1Cc2c(NC(=O)C3([Si](C)(C)C)CCC3)n[nH]c2C1(C)C [IV-21, 6,6-Dimethyl-N-(o-tolyl)-3-[1-(trimethylsilyl)cyclobutanecarboxamido]-4,6-dihydropyrrolo[3,4-c]pyrazole-5(1H)-carboxamide]
IC50 (IL-2 production; [7]): ≤ 100 nM

CC1(C)c2[nH]nc(NC(=O)C3([Si](C)(C)C)CCC3)c2CN1C(=O)Nc1c(F)cccc1Cl [IV-113, N-(2-Chloro-6-fluorophenyl)-6,6-dimethyl-3-[1-(trimethylsilyl)cyclobutanecarboxamido]-4,6-dihydropyrrolo[3,4-c]pyrazole-5(1H)-carboxamide]
IC50 (IL-2 production; Homo sapiens, PBMC): ≤ 100 nM

Cc1ccc(F)c(NC(=O)N2Cc3c(NC(=O)C4([Si](C)(C)C)CCC4)n[nH]c3C2(C)C)c1 [IV-127, N-(2-Fluoro-5-methylphenyl)-6,6-dimethyl-3-[1-(trimethylsilyl)cyclobutanecarboxamido]-4,6-dihydropyrrolo[3,4-c]pyrazole-5 (1H)-carboxamide]
IC50 (IL-2 production; [7]): ≤ 100 nM

Cc1cccc(F)c1NC(=O)N1Cc2c(NC(=O)C3([Si](C)(C)C)CCC3)n[nH]c2C1(C)C [IV-129, N-(2-Fluoro-6-methylphenyl)-6,6-dimethyl-3-[1-(trimethylsilyl)cyclobutanecarboxamido]-4,6-dihydropyrrolo[3,4-c]pyrazole-5 (1H)-carboxamide]
inhibition in vivo at 0.01 % [6]: ≥ 50%

CCc1cccc(F)c1NC(=O)N1Cc2c(NC(=O)C3([Si](C)(C)C)CCC3)n[nH]c2C1(C)C [IV-137, N-(2-Ethyl-6-fluorophenyl)-6,6-dimethyl-3-[1-(trimethylsilyl)cyclobutanecarboxamido]-4,6-dihydropyrrolo[3,4-c]pyrazole-5(1H)-carboxamide]
inhibition in vivo at 0.01 % [6]: ≥ 50%

COc1cccc(F)c1NC(=O)N1Cc2c(NC(=O)C3([Si](C)(C)C)CCC3)n[nH]c2C1(C)C [IV-161, N-(2-Fluoro-6-methoxyphenyl)-6,6-dimethyl-3-[1-(trimethylsilyl)cyclobutanecarboxamido]-4,6-dihydropyrrolo[3,4-c]pyrazole-5(1H)-carboxamide]
IC50 (IL-2 production; [7]): ≤ 100 nM

CC1(C)c2[nH]nc(NC(=O)C3([Si](C)(C)C)CCC3)c2CN1C(=O)Nc1c(F)cccc1OC(F)F [IV-169, N-[2-(Difluoromethoxy)-6-fluorophenyl]-6,6-dimethyl-3-[1-(trimethylsilyl)cyclobutanecarboxamido]-4,6-dihydropyrrolo[3,4-c]pyrazole-5(1H)-carboxamide]
inhibition in vivo at 0.01 % [6]: ≥ 50%

CC1(C)c2[nH]nc(NC(=O)C3([Si](C)(C)C)CCC3)c2CN1C(=O)Nc1c(Cl)cccc1Cl [IV-199, N-(2,6-Dichlorophenyl)-6,6-dimethyl-3-[1-(trimethylsilyl)cyclobutanecarboxamido]-4,6-dihydropyrrolo[3,4-c]pyrazole-5(1H)-carboxamide]
inhibition in vivo at 0.01 % [6]: ≥ 50%

COc1cccc(Cl)c1NC(=O)N1Cc2c(NC(=O)C3([Si](C)(C)C)CCC3)n[nH]c2C1(C)C [IV-247, N-(2-Chloro-6-methoxyphenyl)-6,6-dimethyl-3-[1-(trimethylsilyl)cyclobutanecarboxamido]-4,6-dihydropyrrolo[3,4-c]pyrazole-5(1H)-carboxamide]
inhibition in vivo at 0.01 % [6]: ≥ 50%

Cc1ccc(F)cc1NC(=O)N1Cc2c(NC(=O)C3([Si](C)(C)C)CCC3)n[nH]c2C1(C)C [IV-361, N-(5-Fluoro-2-methylphenyl)-6,6-dimethyl-3-[1-(trimethylsilyl)cyclobutanecarboxamido]-4,6-dihydropyrrolo[3,4-c]pyrazole-5 (1H)-carboxamide]
IC50 (IL-2 production; [7]): ≤ 100 nM | GI50 [1]: < 300 nM | GI50 [2]: < 300 nM | GI50 [3]: < 300 nM | GI50 (lymphoma cell line SR): < 300 nM | GI50 [4]: < 300 nM | GI50 [5]: < 300 nM

Cc1ccc(C)c(NC(=O)N2Cc3c(NC(=O)C4([Si](C)(C)C)CCC4)n[nH]c3C2(C)C)c1 [IV-379, N-(2,5-Dimethylphenyl)-6,6-dimethyl-3-[1-(trimethylsilyl)cyclobutanecarboxamido]-4,6-dihydropyrrolo[3,4-c]pyrazole-5(1H)-carboxamide]
IC50 (IL-2 production; [7]): ≤ 100 nM | GI50 [1]: < 300 nM | GI50 [2]: < 300 nM | GI50 [3]: < 300 nM | GI50 (lymphoma cell line SR): < 300 nM | GI50 [4]: < 300 nM | GI50 [5]: < 300 nM

CCc1cccc(C)c1NC(=O)N1Cc2c(NC(=O)C3([Si](C)(C)C)CCC3)n[nH]c2C1(C)C [IV-389, N-(2-Ethyl-6-methylphenyl)-6,6-dimethyl-3-[1-(trimethylsilyl)cyclobutanecarboxamido]-4,6-dihydropyrrolo[3,4-c]pyrazole-5 (1H)-carboxamide]
inhibition in vivo at 0.01 % [6]: ≥ 50%

Cc1ccc(C)c(NC(=O)N2Cc3c(NC(=O)C4([Si](C)(C)C)CCC4)n[nH]c3C2(C)C)c1F [IV-669, N-(2-Fluoro-3,6-dimethylphenyl)-6,6-dimethyl-3-[1-(trimethylsilyl)cyclobutanecarboxamido]-4,6-dihydropyrrolo[3,4-c]pyrazole-5(1H)-carboxamide]
IC50 (IL-2 production; [7]): ≤ 100 nM | GI50 [1]: < 300 nM | GI50 [2]: < 300 nM | GI50 [3]: < 300 nM | GI50 (lymphoma cell line SR): < 300 nM | GI50 [4]: < 300 nM | GI50 [5]: < 300 nM
